Experimental data published in patent publication EP0084516B1, “Anthelmintics” (CIBA-GEIGY AG, priority 1982, dated 1983).
“And” between values parts separate entries of the source, which are not always exact repeats. Equal entries are not always repeated.

Assays:
Fasciola hepatica [1] = assay: Tests on sheep artificially infected with Fasciola hepatica metacercariae (faecal egg counts and adult fluke counts at autopsy); format: in vivo, Schafe; conditions: for Adulte Egel bei Autopsie Mittelwert: group mean
Protocol: Versuche an mit Fasciola hepatica infizierten Schafen
36 Schafe wurden artifiziell mit Metacercarien von Fasciola hepatica infiziert. Zu diesem Zweck wurden die Metacercarien in einer wäßrigen 0,4%igen Suspension von Carboxymethylcellulose direkt in den Rumen der Versuchstiere injiziert. Die Tiere wurden dann für die Medikierung in etwa gleichgroße Gruppen und in drei Kontrollgruppen eingeteilt. Nach 4 Wochen wurden die Wirkstoffe in Dosen von 5 bis 10 mg/kg Körpergewicht je nach vorgesehener Kombination an die Versuchstiere verabreicht.
Während des Versuchs wurden die Schafe in Gehegeboxen unter Normalbedingungen gehalten.
Zur Prüfung der Wirkung der einzelnen Wirkstoffkombinationen wurden mit einer Standardtechnik 12 bis 15 Wochen nach Infizierung bzw. 8 bis 11 Wochen nach Medikierung die von den Leberegeln abgelegten Eier im Kot gezählt. Anschließend wurden die Versuchstiere getötet, soweit sie nicht zur Gruppe B und Kontrollgrupe B' gehörten (Tiere Nr. 26-36), und es wurde die Zahl der vorhandenen Leberegel festgestellt.

[2] = tested on: 6wöchige und jüngere Leberegel; conditions: comparable dose; from Austral. Vet. J. 55, 431-432, 1979; Brit. Vet. J. 138,371-382, 1982; cited from earlier work
Fasciola hepatica [3] = assay: Tests on sheep artificially infected with Fasciola hepatica metacercariae (faecal egg counts and adult fluke counts at autopsy); format: in vivo, Schafe; conditions: B 4,6 mg/kg, individual sheep

## CSc1nc2cc(Cl)c(Oc3cccc(Cl)c3Cl)cc2[nH]1 [Substanz A, 5-Chlor-6-(2',3'-dichlorphenoxy)-2-methylthiobenzimidazol]
Fasciola hepatica [1]; A 5,0 mg/kg, given 4 weeks after infection, individual sheep
  Adulte Egel bei Autopsie Anzahl: 12 and 23 and 2 and 14 and 0
Fasciola hepatica [1]; A 5,0 mg/kg, given 4 weeks after infection, liver fluke eggs per g faeces, week 14 after infection, individual sheep
  EPG* 14. Woche: 65 pro gr Faeces and 60 pro gr Faeces and 0 pro gr Faeces (2×) and 10 pro gr Faeces
Fasciola hepatica [1]; A 5,0 mg/kg, given 4 weeks after infection, week 15 after infection, individual sheep
  EPG* 15. Woche: 125 pro gr Faeces and 60 pro gr Faeces and 5 pro gr Faeces and 0 pro gr Faeces (2×)
Fasciola hepatica [1]; A 5,0 mg/kg, sheep 1-5
  Adulte Egel bei Autopsie Mittelwert: 10,2
Fasciola hepatica [1]; A 5,0 mg/kg, versus untreated control A'
  Adulte Egel bei Autopsie % Reduktion: 89,4%

## COC(=O)Nc1nc2ccc(Sc3ccccc3)cc2[nH]1 [Substanz C, [5-(Phenylthio)-1 H-benzimidazol-2-yl]-carbaminsäuremethylester, reference compound]
Fasciola hepatica [1]; C 5,0 mg/kg, given 4 weeks after infection, Tabelle 2, individual sheep
  Adulte Egel bei Autopsie Anzahl: 54 and 77 and 82
Fasciola hepatica [1]; C 5,0 mg/kg, Tabelle 2, sheep 20-22
  Adulte Egel bei Autopsie Mittelwert: 71
Fasciola hepatica [1]; C 5,0 mg/kg, Tabelle 2, versus untreated control C'
  Adulte Egel bei Autopsie % Reduktion: 0%

## CCCSc1ccc2nc(NC(=O)OC)[nH]c2c1 [Substanz B, [5-(Propylthio)-1 H-benzimidazol-2-yl]-carbaminsäuremethylester]
[2]
  Wirkung gegen 6wöchige und jüngere Leberegel: unwirksam
Fasciola hepatica [3]; given 4 weeks after infection, week 12 after infection
  EPG* 12. Woche: 360 pro gr Faeces and 370 pro gr Faeces and 290 pro gr Faeces and 880 pro gr Faeces
Fasciola hepatica [3]; week 13 after infection
  EPG* 13. Woche: 1110 pro gr Faeces and 560 pro gr Faeces and 370 pro gr Faeces and 1280 pro gr Faeces
